Tests used:
dystrophin [1] = settings: single 25 mg/kg administration; cited from earlier work
dystrophin exon 23 = assay: RT-PCR and quantitative real time PCR of exon skipping in mdx mouse tissues; type: in vivo, mdx mice; settings: diaphragm; single 12.5 mg/kg IV, 2 weeks
Text: (§1) Given the potency of Pip5e-PMO in heart tissue, the aim of altering the sequence of the hydrophobic core (whilst maintaining the 5-aa length) was to identify peptides that might be more efficient at lower doses. These modifications included inversion of the hydrophobic region (Pip6a), substitution of tyrosine by isoleucine (Pip6b), substitution of glutamine in the Pip6a sequence by displacement of the arginine immediately flanking the core in the first arginine-rich flanking region (Pip6e), and a scrambled hydrophobic core sequence (Pip6f). All Pip6 peptide-PMO conjugates were administered to mdx mice as single 12.5 mg/kg intravenous injections via the tail vein and tissues were harvested 2 weeks later and assessed for activity at both RNA and protein levels.
The RTPCR representative images (FIG. 34d) illustrate high exon skipping efficiency in all tissues analysed. This is better shown by Real Time PCR (qRT-PCR) results for the quadriceps, diaphragm and heart (FIG. 34c). The delta 23 transcript is normalised against ‘total dystrophin’ for each muscle group (n=3). […] Western blots (FIG. 34e) were performed on the tissues of each mouse and were quantified against a 50% and 10% C57BL10 control.
Four and a half month old to 5½ month old mdx mice were used in these experiments (n=3). […]

dystrophin [2] = assay: Immunohistochemical staining and quantification of dystrophin in mdx mice after single IV injection; type: in vivo; settings: heart; mdx mice, single 12.5 mg/kg IV, 2 weeks; relative to laminin, normalised to C57BL10
Text: as §1
Immunohistochemical staining quantification (FIGS. 34a, b) was performed as previously described [Malerba, A., et al., Chronic systemic therapy with low-dose morpholino oligomers ameliorates the pathology and normalizes locomotor behavior in mdx mice. Mol Ther, 2011. 19(2): p. 345-54; Arechavala-Gomeza, V., et al., Immunohistological intensity measurements as a tool to assess sarcolemma-associated protein expression. Neuropathol Appl Neurobiol, 2010. 36(4): p. 265-74.] and was achieved by taking 4 representative frames of the dystrophin staining and correlating this with laminin staining for each section (n=3) of the quadriceps, diaphragm and heart for each peptide-PMO treatment. Untreated mdx and treated mdx mice were normalised to C57BL10 mice. This method allows comparison of the staining intensity of dystrophin at the sarcolemma relative to laminin for each treatment group. Intensity ratios are normalised to C57BL10 samples and each region of interest at the sarcolemma (120 regions for each treatment group) is plotted on a scatter graph. […]
Transverse sections of tissue samples were cut (8 μm thick) for the examination of dystrophin expression. For dystrophin visualisation and quantification, sections were co-stained with rabbit-anti-dystrophin (Abcam) and rat anti-laminin (Sigma), and detected by goat-anti-rabbit IgG Alexa 594 and goat-anti-rat IgG 488 secondary antibodies respectively (Invitrogen). […] Quantitative immunohistochemistry was performed as previously described [Malerba, A., et al., Chronic systemic therapy with low-dose morpholino oligomers ameliorates the pathology and normalizes locomotor behavior in mdx mice. […] For quantification, 4 representative frames of the dystrophin and correlating laminin were taken for each section (n=3) of the quadriceps, diaphragm and heart for each treatment. […] The minimum and maximum fluorescence intensity for 120 regions were recorded for each treatment. […]

[3] = Serum stability of Pip-PMO conjugates in 100% mouse serum (HPLC, MALDI-TOF); type: in vitro ADME; settings: 37° C.
Description: Serum stability may be measured by adding an aliquot of Pip-PMO (10 nmoles) to 100% mouse serum (100 μL) and incubating at 37° C. for 120 or 240 min. Each reaction is diluted with IM guanidinium-HCl solution (300 μL) and ice-cold acetonitrile (600 μL). Samples are mixed and kept at −20° C., and the precipitated serum proteins separated by centrifugation (13000 rpm, 5 min). After centrifugation, the supernatant is collected, lyophilized and the residue dissolved in water for analysis for peptide degradation by MALDI-TOF mass spectrometry and by reversed phase HPLC. HPLC conditions are: Column, C18 reversed-phase (250×4.6 mm); Solvent A, 0.1% TFA, Solvent B, 90% Acetonitrile, 10% solvent A; Gradient, 10%-50% solvent B in 25 minutes.
Serum stability was measured by adding an aliquot of Pip-PMO (10 nmoles) to 100% mouse serum (100 μL) and incubating at 37° C. for 120 or 240 min. Each reaction was diluted with IM guanidinium-HCl solution (300 μL) and ice-cold acetonitrile (600 μL). Samples were mixed and kept at −20° C., and the precipitated serum proteins separated by centrifugation (13000 rpm, 5 min). After centrifugation, the supernatant was collected, lyophilized and the residue dissolved in water for analysis for peptide degradation by MALDI-TOF mass spectrometry and by reversed phase HPLC. […]

For RXRRBRRXRILFQYRXRBRXRBC [Pip5e-PMO], the “dystrophin protein restoration in all muscle types, including heart” value (dystrophin [1]) is given as “high levels”, the “Δ23 exon skipping by qRT-PCR” value (dystrophin exon 23) is given as “highest exon skipping” and the “percent recovery score (% RS), dystrophin immunostaining” value (dystrophin [2]) is given as 17.32%. The “stability in 100% mouse serum” value ([3]; 120 min (2 h), HPLC and MALDI-TOF) was “unchanged Pip-PMO conjugate” and the “levels of PMO conjugated to fragments of peptide” value ([3]; 100% mouse serum, 120 minutes) was “very similar to that for (RXRRBR)2XB-PMO”.

— patent US9302014B2, “Cell-penetrating peptides having a central hydrophobic domain” (Medical Research Council, priority 2011, dated 2016)
